In patent publication US20060046966A1, “Antipicornaviral compounds and compositions, their pharmaceutical uses, and materials for their synthesis” (Agouron Pharmaceuticals, Inc., priority 1998, published 2006) one finds CC50, EC50 and kinact/KI data, which are given here for three molecules.

Data set [1] relates to H1-HeLa cells. The experiment in a line: Cytotoxicity in uninfected H1-HeLa cells (anticoxsackieviral assay, XTT). The format is cell-based. To be noted: 50% cytotoxic dose, Table 4. As to the method:
(§1) The ability of compounds to protect cells against either CAV-21 or CVB-3 infection was measured by the XTT dye reduction method. This method is described in Weislow et al., J. Natl. Cancer Inst. 1989, vol. 81, 577-586. H1-HeLa cells were infected with CAV-21 or CVB-3 at a multiplicity of infection (m.o.i.) of 0.025 or 0.075, respectively, or mock-infected with medium only. H1-HeLa cells were plated at 4×10^4 cells per well in a 96-well plate and incubated with appropriate concentrations of the test compound. One day (CVB-3) or two days (CAV-21) later, XTT/PMS was added to test plates and the amount of formazan produced was quantified spectrophotometrically at 450/650 nm. The EC50 was calculated as the concentration of compound that increased the formazan production in compound-treated, virus-infected cells to 50% of that produced by compound-free, uninfected cells. The 50% cytotoxic dose (CC50) was calculated as the concentration of compound that decreased formazan production in compound-treated, uninfected cells to 50% of that produced in compound-free, uninfected cells. The therapeutic index TI) was calculated by dividing the CC50 by the EC50.

Data set [2] has as its system HRV-14. The experiment in a line: Antirhinoviral H1-HeLa cell culture assay, HRV-14. The note with it: Rhinovirus B, HRV14, H1-HeLa, HRV serotype-14, H1-HeLa cells. The format is cell-based, human rhinovirus. A digest of the protocol:
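XTT cell-protection assay in H1-HeLa cells infected with rhinovirus or mock-infected, then incubated with compound for two days; formazan was read at 450/650 nm. EC50 is the concentration restoring infected-cell formazan to 50% of compound-free mock-infected cells; CC50 is the concentration halving formazan in mock-infected cells.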

In data set [3] the test system is Echovirus type 11 (EV 11). The experiment in a line: Anti-echoviral cell culture assay, EV 11. The data set is classed as cell-based. To be noted: Enterovirus B, MRC5, 96 h; Strain EV-11; MRC-5 cells; four days; XTT; read-out: EC50. As to the method:
(§2) Echovirus type 11 (EV 11) and enterovirus type 70 (EV 70) were purchased from ATCC (Rockville, Md.). Virus stocks were propagated and antiviral assays were performed in MRC-5 cells (ATCC). Cells were grown in minimal essential medium with 10% fetal bovine serum (Life Technologies, Gaithersburg, Md.).
(§3) The ability of compounds to protect cells against either EV 11 or EV 70 infection was measured by the XTT dye reduction method (Weislow et al., J. Natl. Cancer Inst. 1989, vol. 81, 577-586). MRC-5 cells were infected with EV 11 or EV 70 at an m.o.i. of 0.003 or 0.004, respectively, or mock-infected with medium only. Infected or uninfected cells were added at 1×10^4 cells per well and incubated with appropriate concentrations of compound. Four days later, XTT/PMS was added to test plates, and the amount of formazan produced was quantified spectrophotometrically at 450/650 nm. The EC50 was calculated as the concentration of compound that increased the formazan production in compound-treated, virus-infected cells to 50% of that produced by compound-free, uninfected cells. The 50% cytotoxic dose (CC50) was calculated as the concentration of compound that decreased formazan production in compound-treated, uninfected cells to 50% of that produced in compound-free, uninfected cells. The therapeutic index (TI) was calculated by dividing the CC50 by the EC50.
The compounds were tested against control compounds Pirodavir (obtained from Janssen Pharmaceuticals) and Pleconaril (prepared according to Diana et al., J. Med. Chem. 1995, vol. 38, 1355). Antiviral data obtained for the test compounds against strain EV 11 and EV 70 are shown below in Table 5.

Data set [4] relates to Coxsackievirus type B3 (CVB-3). The experiment in a line: Anticoxsackieviral cell culture assay, CVB-3. The data set is classed as cell-based. To be noted: 24 h, Strain CVB-3, H1-HeLa cells, one day, XTT, read-out: EC50. The protocol: (§4) Coxsackievirus types A-21 (CAV-21) and B3 (CVB-3) were purchased from American Type Culture Collection (ATCC, Rockville, Md.). Virus stocks were propagated and antiviral assays were performed in H1-HeLa cells (ATCC). Cells were grown in minimal essential medium with 10% fetal bovine serum (Life Technologies, Gaithersburg, Md.).
as §1
(§5) The compounds were tested against control compounds WIN 54954 (obtained from Sterling-Winthrop Pharmaceuticals), Pirodavir (obtained from Janssen Pharmaceuticals), and Pleconaril (prepared according to Diana et al., J. Med. Chem. 1995, 38, 1355).

Data set [5] relates to Coxsackievirus type A-21 (CAV-21). The data set is described as follows: Anticoxsackieviral cell culture assay, CAV-21. The format is cell-based. The note with it: 48 h, Strain CAV-21, H1-HeLa cells, two days, XTT, read-out: EC50. The protocol: as §4, §1, §5
Data set [6] has as its system enterovirus type 70 (EV 70). The data set is described as follows: Anti-enteroviral cell culture assay, EV 70. The format is cell-based. The note with it: Enterovirus D, MRC5, 96 h; Strain EV-70; MRC-5 cells; four days; XTT. As to the method: as §2
as §3, with “EC50. […]” for “EC50.”

Data set [7] concerns the target T1, rhinovirus 3C protease, serotype 16 (Human rhinovirus 16, UniProt Q82122).
T1 construct: Recombinant rhinovirus 3C proteases; made in house
The data set is described as follows: Inhibition of rhinovirus 3C protease (FRET assay), serotype 16. The format is biochemical. The note with it: Rhinovirus Serotype (16) 3C protease; read-out: kobs/I. As to the method:
Stock solutions (50 mM, in DMSO) of various compounds were prepared; dilutions were in the same solvent. Recombinant rhinovirus 3C proteases (see Birch et al., “Purification of recombinant human rhinovirus 14 3C protease expressed in Escherichia coli,” Protein Expr. Pur. 1995, 6(5), 609-618) from serotypes 14, 16, and 2 were prepared by the following standard chromatographic procedures: (1) ion exchange using Q Sepharose Fast Flow from Pharmacia; (2) affinity chromatography using Affi-Gel Blue from Biorad; and (3) sizing using Sephadex G-100 from Pharmacia. Each assay sample contained 2% DMSO, 50 mM tris pH 7.6, 1 mM EDTA, a test compound at the indicated concentration, approximately 1 μM substrate, and 50-100 nM protease. The kobs/I values were obtained from reactions initiated by addition of enzyme rather than substrate. RVP activity was measured in the fluorescence resonance energy transfer assay. The substrate was (N-terminal) DABCYL-(Gly-Arg-Ala-Val-Phe-Gln-Gly-Pro-Val-Gly)-EDANS. In the uncleaved peptide, the EDANS fluorescence was quenched by the proximal DABCYL moiety. When the peptide was cleaved, the quenching was relieved, and activity was measured as an increase in fluorescence signal. […] The data in the column designated kobs/[I] were measured from progress curves in enzyme start experiments.

In data set [8] the test system is HRV (10). The experiment in a line: Antirhinoviral H1-HeLa cell culture assay, HRV serotype 10. The data set is classed as cell-based, human rhinovirus. The note with it: Human rhinovirus sp., H1-HeLa, H1-HeLa cells, XTT. As to the method: (§6) In this cell protection assay, the ability of compounds to protect cells against HRV infection was measured by the XTT dye reduction method, which is described in Weislow et al., J. Natl. Cancer Inst. 1989, vol. 81, 577-586.
(§7) H1-HeLa cells were infected with HRV-14 at a multiplicity of infection (m.o.i.) of 0.13 (virus particles/cell) or mock-infected with medium only. Infected or mock-infected cells were resuspended at 8×10^5 cells per mL, and incubated with appropriate concentrations of the compounds to be tested. Two days later, XTT/PMS was added to test plates and the amount of formazan produced was quantified spectrophotometrically at 450/650 nm. The EC50 value was calculated as the concentration of compound that increased the percentage of formazan production in compound-treated, virus-infected cells to 50% of that produced by compound-free, mock-infected cells. The 50% cytotoxic dose (CC50) was calculated as the concentration of compound that decreased the percentage of formazan produced in compound-treated, mock-infected cells to 50% of that produced by compound-free, mock-infected cells. The therapeutic index (TI) was calculated by dividing the CC50 value by the EC50 value.
(§8) All strains of human rhinovirus (HRV) for use in this assay were purchased from American Type Culture Collection (ATCC), except for HRV serotype-14 (produced from the infectious cDNA clone constructed by Dr. Robert Rueckert, Institute for Molecular Virology, University of Wisconsin, Madison, Wis.). HRV stocks were propagated and viral assays were performed in H1-HeLa cells (ATCC). Cells were grown in minimal essential medium with 10% fetal bovine serum, available from Life Technologies (Gaithersburg, Md.).
(§9) The compounds were tested against control compounds WIN 51711, WIN 52084, and WIN 54954 (obtained from Sterling-Winthrop Pharmaceuticals), Pirodavir (obtained from Janssen Pharmaceuticals), and Pleconaril (prepared according to the method described in Diana et al., J. Med. Chem 1995, vol. 38, 1355). Antiviral data obtained for the test compounds are shown in Tables 1 and 3, where all data are for HRV serotype-14 unless otherwise noted in parentheses.

Data set [9] concerns the target T2, rhinovirus 3C protease from HRV serotype-14 (Human rhinovirus 14, UniProt P03303).
T2 construct: Recombinant rhinovirus 3C proteases; made in house
The data set is described as follows: Inhibition of rhinovirus 3C protease (FRET assay), serotype 14. The data set is classed as biochemical. The note with it: HRV serotype-14 3C protease; progress curves in enzyme start experiments; read-out: Protease Inhibition kobs/[I]. In a few lines:
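Recombinant 3C protease (50-100 nM) with ~1 μM DABCYL-GRAVFQGPVG-EDANS FRET substrate in 50 mM Tris pH 7.6, 1 mM EDTA, 2% DMSO. Cleavage read as increase in EDANS fluorescence. kobs/[I] derived from progress curves of enzyme-initiated reactions.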

In data set [10] the test system is HRV (89). The experiment in a line: Antirhinoviral H1-HeLa cell culture assay, HRV serotype 89. The data set is classed as cell-based, human rhinovirus. To be noted: Human rhinovirus sp., H1-HeLa cells, XTT. As to the method: as §6, §7, §8, §9
For data set [11], the system named is HRV (16). The experiment in a line: Antirhinoviral H1-HeLa cell culture assay, HRV serotype 16. The data set is classed as cell-based. To be noted: Human rhinovirus sp., H1-HeLa cells, XTT. The protocol: as §6, §7, §8
The compounds were tested against control compounds WIN 51711, WIN 52084, and WIN 54954 (obtained from Sterling-Winthrop Pharmaceuticals), Pirodavir (obtained from Janssen Pharmaceuticals), and Pleconaril (prepared according to the method described in Diana et al., J. Med. Chem 1995, vol. 38, 1355). […]

Data set [12] concerns the target T3, rhinovirus 3C protease, serotype 89 (Human rhinovirus A serotype 89, UniProt P07210).
T3 construct: Recombinant rhinovirus 3C proteases
The experiment in a line: Inhibition of rhinovirus 3C protease (FRET assay), serotype 89. The data set is classed as biochemical. The note with it: Rhinovirus Serotype (89) 3C protease; read-out: kobs/I.

Data set [13] concerns the target T4, rhinovirus 3C protease, serotype 2 (Human rhinovirus 2, UniProt P04936).
T4 construct: Recombinant rhinovirus 3C proteases; made in house
The experiment in a line: Inhibition of rhinovirus 3C protease (FRET assay), serotype 2. The data set is classed as biochemical. To be noted: Rhinovirus Serotype (2) 3C protease; read-out: kobs/I. The protocol: Stock solutions (50 mM, in DMSO) of various compounds were prepared; dilutions were in the same solvent. Recombinant rhinovirus 3C proteases (see Birch et al., “Purification of recombinant human rhinovirus 14 3C protease expressed in Escherichia coli,” Protein Expr. Pur. 1995, 6(5), 609-618) from serotypes 14, 16, and 2 were prepared by the following standard chromatographic procedures: (1) ion exchange using Q Sepharose Fast Flow from Pharmacia; (2) affinity chromatography using Affi-Gel Blue from Biorad; and (3) sizing using Sephadex G-100 from Pharmacia. Each assay sample contained 2% DMSO, 50 mM tris pH 7.6, 1 mM EDTA, a test compound at the indicated concentration, approximately 1 μM substrate, and 50-100 nM protease. The kobs/I values were obtained from reactions initiated by addition of enzyme rather than substrate. RVP activity was measured in the fluorescence resonance energy transfer assay. The substrate was (N-terminal) DABCYL-(Gly-Arg-Ala-Val-Phe-Gln-Gly-Pro-Val-Gly)-EDANS. In the uncleaved peptide, the EDANS fluorescence was quenched by the proximal DABCYL moiety. When the peptide was cleaved, the quenching was relieved, and activity was measured as an increase in fluorescence signal. In Table 1, all data are for rhinovirus 3C protease from HRV serotype-14 (produced from the infectious cDNA clone constructed by Dr. Robert Rueckert, Institute for Molecular Virology, University of Wisconsin, Madison, Wis.). […] The data in the column designated kobs/[I] were measured from progress curves in enzyme start experiments.

SMILES strings stand for the structures. Read-outs that look alike come from different tables or passages of the source.

T2 sequence (P03303 1538-1719): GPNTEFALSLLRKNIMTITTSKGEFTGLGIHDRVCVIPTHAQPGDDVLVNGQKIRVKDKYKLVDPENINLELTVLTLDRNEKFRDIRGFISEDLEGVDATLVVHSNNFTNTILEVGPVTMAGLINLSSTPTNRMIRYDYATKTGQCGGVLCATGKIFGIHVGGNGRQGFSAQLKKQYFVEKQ
T1 sequence (Q82122 1511-1693): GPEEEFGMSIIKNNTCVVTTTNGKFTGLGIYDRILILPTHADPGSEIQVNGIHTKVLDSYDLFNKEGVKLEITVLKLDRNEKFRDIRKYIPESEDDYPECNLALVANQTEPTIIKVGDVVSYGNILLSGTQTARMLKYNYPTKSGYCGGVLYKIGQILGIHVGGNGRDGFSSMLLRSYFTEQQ
T4 sequence (P04936 1508-1690): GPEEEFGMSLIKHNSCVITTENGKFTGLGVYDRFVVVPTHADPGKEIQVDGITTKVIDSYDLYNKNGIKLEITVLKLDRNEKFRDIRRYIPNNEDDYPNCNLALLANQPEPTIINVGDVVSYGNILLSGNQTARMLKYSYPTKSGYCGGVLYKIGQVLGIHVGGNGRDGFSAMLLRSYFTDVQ
T3 sequence (P07210 1522-1704): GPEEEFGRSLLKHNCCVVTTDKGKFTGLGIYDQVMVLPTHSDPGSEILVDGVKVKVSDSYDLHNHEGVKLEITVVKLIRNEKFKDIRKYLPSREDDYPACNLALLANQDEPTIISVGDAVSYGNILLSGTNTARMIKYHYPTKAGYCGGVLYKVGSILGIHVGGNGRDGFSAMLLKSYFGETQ

With `Cc1cc(CCCCCOc2c(Cl)cc(C3=NCCO3)cc2Cl)on1` [WIN 54954], the CC50 in data set [1] was over 100000 nM.
In the case of `CCOC(=O)c1ccc(OCCC2CCN(c3ccc(C)nn3)CC2)cc1` [Pirodavir, reference compound], the EC50 in data set [2] (Table 3, XTT, read-out: EC50) was 30 nM; in data set [3] it was 3700 nM; in [4], over 100000 nM; in [5], over 100000 nM; in data set [6], 60 nM.
As for `CCOC(=O)/C=C/[C@H](CCC(N)=O)NC(=O)[C@H](Cc1ccccc1)NC(=O)[C@H](CC(C)C)NC(=O)OCc1ccccc1` [Comparison Compound #2, Ethyl-3-(Cbz-L-Leu-L-Phe-L-Gln)-E-Propenoate, reference compound], the EC50 in [2] (Table 1, XTT dye reduction, read-out: Cell Protection EC50) is 610 nM; in data set [2] (Table 3, XTT, read-out: EC50), 610 nM; in data set [8] it was 600 nM; in data set [10] it was 6300 nM; in data set [11] it was 2300 nM. Moreover, the kinact/KI in data set [7] was determined as 6500 M⁻¹ s⁻¹; in data set [9] it was 25000 M⁻¹ s⁻¹; in data set [12], 3400 M⁻¹ s⁻¹; in [13] it was 2000 M⁻¹ s⁻¹.
